Measurements taken from ChEMBL document CHEMBL3871265, “The therapeutic journey of pyridazinone” (Eur J Med Chem, 2016).

Columns and labels:
Rattus norvegicus [1] = species: Rattus norvegicus; experiment: Antiinflammatory activity in rat pyresis model; assay type: functional
[2] = Antiplatelet activity in human washed platelets assessed as reduction in thrombin-induced platelet aggregation preincubated for 5 mins followed by thrombin induction measured after 5 mins by dual channel aggregometric analysis; assay type: functional, cell-based
[3] = Cytotoxicity against human IMR32 cells assessed as reduction in cell viability after 72 hrs by MTT assay; assay type: functional, cell-based; settings: IMR-32, 72 h
Rattus norvegicus [4] = experiment: Antiinflammatory activity in rat paw edema model; assay type: functional
[5] = target: T1, Adrenergic receptor alpha-1 (Rattus norvegicus, UniProt P15823+P23944+P43140); experiment: Displacement of [3H]prazosin from alpha1-adrenergic receptor in rat cerebral cortex membranes; assay type: cell membranes, Membrane
T1 sequence (P15823 whole entry): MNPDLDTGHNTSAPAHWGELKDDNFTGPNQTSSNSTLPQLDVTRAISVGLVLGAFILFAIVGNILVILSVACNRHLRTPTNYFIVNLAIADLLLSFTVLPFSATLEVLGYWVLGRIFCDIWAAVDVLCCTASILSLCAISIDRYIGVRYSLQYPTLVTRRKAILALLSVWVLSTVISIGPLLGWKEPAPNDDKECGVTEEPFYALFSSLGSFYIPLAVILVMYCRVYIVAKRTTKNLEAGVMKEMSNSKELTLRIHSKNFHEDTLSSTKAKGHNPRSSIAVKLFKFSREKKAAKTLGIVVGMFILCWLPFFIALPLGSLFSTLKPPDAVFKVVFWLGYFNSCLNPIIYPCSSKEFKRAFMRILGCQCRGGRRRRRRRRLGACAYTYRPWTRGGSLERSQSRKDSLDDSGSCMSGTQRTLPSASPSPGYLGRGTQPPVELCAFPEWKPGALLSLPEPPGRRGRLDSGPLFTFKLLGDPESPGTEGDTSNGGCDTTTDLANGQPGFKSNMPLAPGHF
T1 sequence (P23944 whole entry): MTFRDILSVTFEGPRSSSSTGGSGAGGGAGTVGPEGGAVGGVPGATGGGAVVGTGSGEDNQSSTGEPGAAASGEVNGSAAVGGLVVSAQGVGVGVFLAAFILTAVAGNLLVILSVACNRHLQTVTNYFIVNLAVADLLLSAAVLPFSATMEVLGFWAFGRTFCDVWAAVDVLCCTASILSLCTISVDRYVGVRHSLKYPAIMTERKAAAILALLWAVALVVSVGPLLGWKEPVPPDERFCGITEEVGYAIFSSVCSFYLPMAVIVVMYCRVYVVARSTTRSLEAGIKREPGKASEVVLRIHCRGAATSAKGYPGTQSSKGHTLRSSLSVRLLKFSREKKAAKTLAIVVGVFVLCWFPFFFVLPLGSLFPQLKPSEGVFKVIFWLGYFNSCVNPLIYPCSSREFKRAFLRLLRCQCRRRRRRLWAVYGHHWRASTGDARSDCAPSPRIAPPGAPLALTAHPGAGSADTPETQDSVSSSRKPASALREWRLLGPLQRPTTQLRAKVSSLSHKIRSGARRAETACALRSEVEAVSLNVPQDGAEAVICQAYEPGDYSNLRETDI
T1 sequence (P43140 whole entry): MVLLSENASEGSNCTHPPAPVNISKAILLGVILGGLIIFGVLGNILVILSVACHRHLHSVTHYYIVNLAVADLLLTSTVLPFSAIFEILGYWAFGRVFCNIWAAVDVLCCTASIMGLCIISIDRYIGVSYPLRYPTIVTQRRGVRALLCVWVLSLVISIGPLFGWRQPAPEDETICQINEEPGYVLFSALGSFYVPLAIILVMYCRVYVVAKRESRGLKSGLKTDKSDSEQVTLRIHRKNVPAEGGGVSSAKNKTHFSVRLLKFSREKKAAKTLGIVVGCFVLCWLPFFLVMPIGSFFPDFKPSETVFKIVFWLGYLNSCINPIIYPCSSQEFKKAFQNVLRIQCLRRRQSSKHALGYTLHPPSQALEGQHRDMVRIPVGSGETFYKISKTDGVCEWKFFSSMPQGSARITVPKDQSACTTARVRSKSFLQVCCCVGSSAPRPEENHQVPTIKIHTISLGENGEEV

[6] = target: Adrenergic receptor alpha-1 (Rattus norvegicus) (UniProt P15823+P23944+P43140); experiment: Potency index, ratio of compound affinity to prazosin affinity for alpha1-adrenergic receptor in rat cerebral cortex membranes; assay type: cell membranes; settings: Membrane
[7] = Antiinflammatory activity in human HL60 cells assessed as inhibition of LPS-induced IL-1beta production; assay type: functional, cell-based; settings: HL-60
[8] = Antiplatelet activity in human platelets assessed as reduction in thrombin-induced platelet aggregation by turbidimetric method; assay type: functional, cell-based
[9] = Cytotoxicity against human SMMC7721 cells assessed as cell growth inhibition after 72 hrs in presence of 5% CO2 by MTS assay; assay type: functional; settings: SMMC-7721, 72 h
[10] = Cytotoxicity against human Bel7402 cells assessed as cell growth inhibition after 72 hrs in presence of 5% CO2 by MTS assay; assay type: functional; settings: Bel-7402, 72 h
[11] = Cytotoxicity against human QGY7703 cells assessed as cell growth inhibition after 72 hrs in presence of 5% CO2 by MTS assay; assay type: functional; settings: QGY-7703, 72 h
[12] = Agonist activity at PGI2 in human platelet-rich plasma assessed as inhibition of ADP-induced platelet aggregation

C[C@H]1C[C@@H]1Cn1ncc(-c2ccc(S(C)(=O)=O)cc2)c(-c2ccc(F)cc2)c1=O
ED50 (Rattus norvegicus [1]): 1.1 mg/kg

COC(=O)/C(=C/c1cc(O)nnc1-c1ccccc1)C(C)=O
IC50 [2]: 25 µM

CC(C)(C)c1ccc(CSc2c(-c3ccccc3)nn(C(C)(C)C)c(=O)c2F)cc1
IC50 [2]: 15 µM

CCOC(=O)C(=Cc1cc(=O)[nH]nc1-c1ccccc1)C(=O)OCC
IC50 [2]: 20 µM

Cc1n[nH]c(=O)c2c1c1cc(F)ccc1n2Cc1cn(C2CCCCC2)nn1
IC50 [3]: 40 nM

CC(C)Oc1c(-c2ccc(S(C)(=O)=O)cc2)cnn(Cc2ccccc2)c1=O
ED50 (Rattus norvegicus [4]): 0.3 mg/kg

O=C(c1ccco1)N1CCN(c2cnn(CCCCCCCN3CCN(c4ccccc4Oc4ccccc4)CC3)c(=O)c2Cl)CC1
Ki [5]: 0.052 nM | Ratio [6]: 5

COc1ccc(-c2cc(=O)n(CC/C=C/c3ccccc3)nc2-c2ccc(OC)cc2)cc1
IC50 [7]: 100 nM

O=C(/C=C/c1cc(=O)[nH]nc1-c1ccccc1)c1ccc(Cl)cc1Cl
IC50 [8]: 3.44 µM

O=c1ccc(-c2ccc(N3CCOCC3)c(C(F)(F)F)c2)n[nH]1
GI50 [9]: 28.7 nM | GI50 [10]: 469 nM | GI50 [11]: 30.2 nM

O=C(/C=C/c1cc(=O)[nH]nc1-c1ccccc1)c1ccccc1
IC50 [2]: 25 µM

COC(=O)C(=Cc1cc(=O)[nH]nc1-c1ccccc1)C(=O)OC
IC50 [2]: 45 µM

O=C(O)COc1cccc2c1CC[C@H](Cn1nc(C(c3ccccc3)c3ccccc3)ccc1=O)C2
IC50 [12]: 81 nM
